Laboratory results: patent publication US8883745B2, “C—glycolipids with enhanced Th-1 profile” (New York University, priority 2006, dated 2014)

Columns and labels:
[1] = test system: IL-4; experiment: IL-4 levels in sera upon i.v. glycolipid administration to BALB/c mice (ELISA); type: in vivo; design: unit not given here
Method: (§1) Five- to six-week-old female C57BL/6 mice and BALB/c mice were purchased from Taconic. Each glycolipid was stored at 1 mg/ml in 100% DMSO. Mice were injected intravenously with 1 μg of each glyocolipid diluted in 200 μL sterile phosphate buffered saline (PBS). At indicated time points, sera were collected from each animal, and concentrations of IFN-γ, IL-4, and IL-12 in the sera were evaluated by enzyme-linked immunosorbent assay (ELISA). Serum concentrations of IFN-γ, IL-4, and IL-12 were evaluated using an ELISA kit (eBioscience, San Diego, Calif.). Briefly, 96 well flat-bottom ELISA plates (NUNC) were coated with capture antibody according to the manufacture's recommendation and incubated overnight at 4° C. The plates were washed with PBS+0.05% Tween 20 (PBS-T), then incubated with manufacturer provided blocking solution for 1 hr at room temperature to block non-specific binding sites. After washing with PBS-T, sera diluted 1:10 was added to the wells and incubated for 2 hrs at room temperature. Plates were then incubated at room temperature for 1 hr with biotintylated detection antibody, washed, incubated with avidin conjugated to horse radish peroxidase (HRP) for 30 min at room temperature, washed, and finally incubated with tetramethylbenzidine substrate solution in the dark for 10 minutes at room temperature. The antibodies, avidin-HRP, and substrate solution were all diluted according to the manufacture's recommendation. Reactions were stopped with 2.0N sulfuric acid and the cytokine concentration in each well was determined by comparing the absorbance at 450 nm in each well to known standards. The levels of Th1- and Th2-type cytokines were determined in two different genetic backgrounds, i.e., in C57BL/6 mice and BALB/c mice. The following compounds were administered: A=compound (A-1 trans-conformer), B=compound (A-2), C=compound (A-3), D=compound (A-4), E=compound (A-5), Z=control (PBS alone), CRONY=α-C-GalCer, KRN=α-GalCer, GCK109 (A-1 trans-conformer), GCK151 (A-1 cis-conformer), GCK152 (A-7). The levels of cytokines were measured at 0, 2, 6, 12, 24, 48, and 72 hours after the compound administration. The levels of Th1-type cytokines IFN-γ and IL-12 are summarized in FIGS. 2A-C and 3A-C, respectively. Table 7 provides IFN-γ/IL-4 and IL-12/IL-4 ratios for various compounds, which can be used as indicators of their ability to selectively stimulate Th1-type immune responses.

[2] = test system: IL-4; experiment: IL-4 levels in sera upon i.v. glycolipid administration to C57BL/6 mice (ELISA); type: in vivo; design: unit not given here
Method: as §1

[3] = Solubility in an aqueous solution; type: physicochemical
[4] = test system: rodent malaria parasites, P. yoeli and P. berghei; details: administration to mice; cited from earlier work
[5] = rodents and monkeys, independently of dosage; cited from earlier work
[6] = test system: solid tumors; details: Phase I study; cited from earlier work

Structure (SMILES): CCCCCCCCCCCCCCCCCCCCCCCCCC(=O)N[C@@H](CO[C@H]1O[C@H](CO)[C@H](O)[C@H](O)[C@H]1O)[C@H](O)[C@H](O)CCCCCCCCCCCCCC [KRN, (2S,3S,4R)-1-O-(α-D-galactopyranosyl)-2-(N-hexacosanoylamino)-1,3,4-,-octadecanetriol, reference compound]
- IL-4 level, average ([1]; hour 0): 27
- IL-4 level, test 1 ([1]; hour 0): 27
- IL-4 level, test 2 ([1]; hour 0): 27
- IL-4 level, average ([1]; hour 2): 1690
- IL-4 level, test 1 ([1]; hour 2): 1809
- IL-4 level, test 2 ([1]; hour 2): 1571
- IL-4 level, average ([1]; hour 6): 204
- IL-4 level, test 1 ([1]; hour 6): 214
- IL-4 level, test 2 ([1]; hour 6): 194
- IL-4 level, average ([1]; hour 12): 89
- IL-4 level, test 1 ([1]; hour 12): 78
- IL-4 level, test 2 ([1]; hour 12): 100
- IL-4 level, average ([1]; hour 24): 50.5
- IL-4 level, test 1 ([1]; hour 24): 51
- IL-4 level, test 2 ([1]; hour 24): 50
- IL-4 level, average ([1]; hour 48): 44
- IL-4 level, test 1 ([1]; hour 48): 46
- IL-4 level, test 2 ([1]; hour 48): 42
- IL-4 level, average ([1]; hour 72): 12
- IL-4 level, test 1 ([1]; hour 72): 12
- IL-4 level, test 2 ([1]; hour 72): 12
- IL-4 level, Total ([1]; total over hours 0-72): 2117
- IL-4 level, average ([2]; hour 0): 46
- IL-4 level, test 1 ([2]; hour 0): 46
- IL-4 level, test 2 ([2]; hour 0): 46
- IL-4 level, average ([2]; hour 2): 3915
- IL-4 level, test 1 ([2]; hour 2): 3584
- IL-4 level, test 2 ([2]; hour 2): 4246
- IL-4 level, average ([2]; hour 6): 183
- IL-4 level, test 1 ([2]; hour 6): 122
- IL-4 level, test 2 ([2]; hour 6): 244
- IL-4 level, average ([2]; hour 12): 102.5
- IL-4 level, test 1 ([2]; hour 12): 103
- IL-4 level, test 2 ([2]; hour 12): 102
- IL-4 level, average ([2]; hour 24): 18
- IL-4 level, test 1 ([2]; hour 24): 20
- IL-4 level, test 2 ([2]; hour 24): 16
- IL-4 level, average ([2]; hour 48): 1
- IL-4 level, test 1 ([2]; hour 48): 2
- IL-4 level, test 2 ([2]; hour 48): 0
- IL-4 level, average ([2]; hour 72): 0.5
- IL-4 level, test 1 ([2]; hour 72): 0
- IL-4 level, test 2 ([2]; hour 72): 1
- IL-4 level, Total ([2]; total over hours 0-72): 4267
- solubility in an aqueous solution relative to the tested compounds of the invention [3]: more soluble
- anti-malaria activity (inhibition of intra-hepatocytic stages) [4]: strong anti-malaria activity
- toxicity [5]: does not induce toxicity
- effect in patients with solid tumors [6]: little effect
